Entries after “also recorded” stand apart in the source; their conditions may differ. Square brackets hold non-standard residues; d marks the D form. Ends that are not written are not given here. Peptide text beside a SMILES is read from it. * marks the point of attachment. Sta = CC(C)C[C@H](N)[C@@H](O)CC(=O)O; Isovaleryl = CC(C)CC(=O)*
Tests used:
[1] = system: PC12 cells; test: Inclusion formation of tNhtt-60Q-Venus with or without HSC70bm in PC12 cells; type: cell-based, rat; details: 10 mM 3MA, 10 μM pepstatin A
Description: The tNhtt-16Q-EGFP and tNhtt-150Q-EGFP plasmids for transient transfection were prepared by the introduction of the coding sequence into pcDNA3.1 vector (Invitrogen). […] HSC70bm were amplified with primers containing SalI in the forward and XmaI cutting site in the reverse primer from the 60QHsc construct. […] To produce molecules without mRFP tag, all constructs were amplified using primers containing BamHI in the forward and XbaI in the reverse primer, respectively, and introduced to pcDNA3.1 vector.
Rat pheochromocytoma (PC12) cells were grown in the same conditions as Neuro2a cells, except for the serum composition of 5% of fetal bovine and 10% of horse serum (Sigma). […]
In each well, at least 10000 cells were counted and quantified for the presence of the inclusions. […] The screening itself consisted of two scans using Hoechst, FITC (for GFP) and TRITC (for RFP) fluorescence. […] The percentage of the cells with aggregates was then calculated. When the constructs without mRFP were used for transfection, the procedure was same, except the RFP intensity was not measured. […]

[2] = system: polyQ inclusions in 150Q Neuro2a cells (tNhtt-EGFP-150Q); test: ArrayScan quantification of polyQ inclusion formation in inducible 150Q Neuro2a cells; type: cell-based, mouse; details: for decrease of inclusion formation: mRFP-tagged constructs, after 24 hours of differentiation and induction
Description: (§1) Mouse neuroblastoma (Neuro2a) cells were maintained in Dulbecco's modified Eagle's medium (Sigma) supplemented with 10% heat-inactivated fetal bovine serum (Sigma), 100 U/ml penicillin and 100 μg/ml streptomycin (Invitrogen) at 37° C. in an atmosphere containing 5% CO2 and 95% air. Establishment of stable Neuro2a cell lines with the ecdysone-inducible mammalian expression system (Invitrogen), that express tNhtt-EGFP-16Q (16Q Neuro2a cells), tNhtt-EGFP-150Q (150Q Neuro2a cells) and tNhtt-EGFP-150Q-nls (150Q-nls Neuro2a cells) has been described earlier (T. Nagai et al., supra, H. Doi et al., supra, E. A. Zemskov et al., J Neurochem. 87, 2 (2003)). Neuro2a cells were differentiated with 5mM dbcAMP (N^6, 2′-O-dibutyryladenosine-3′,5′-cyclic monophosphate sodium salt) (Nacalai Tesque) and induced to express tNhtt-polyQ with 2 μM ponasterone A (ponA; Invitrogen) for indicated times. Neuro2a/FRT/TR cell line was generated as described in the protocol for Flp-in/T-Rex system (Invitrogen). Neuro2a tNhtt-62Q-kikGR cell line was generated by transfecting Neuro2a/FRT/TR cells with the pFRT-HD62-KikGR and pOG44 (Invitrogen) constructs using Lipofectamine 2000 reagent and selected with 200 μg/ml hygromycin. The expression of the pFRT-tNhtt-62Q-KikGR was induced by 18 doxycycline treatment of the cells. For the photo-induced kikGR cleavage, cells were exposed to ˜400 nm wavelength for 5 minutes. Rat pheochromocytoma (PC12) cells were grown in the same conditions as Neuro2a cells, except for the serum composition of 5% of fetal bovine and 10% of horse serum (Sigma). All transient transfections were performed with Lipofectamine 2000 (Invitrogen) according to the manufacturer's instruction.
(§2) For the quantification of the inclusions, cells were grown in 24-well plates for indicated periods, fixed in 4% paraformaldehyde, washed and incubated with Hoechst 33258 at 1/1000 dilution in PBS. Cells were analyzed by ArrayScan® V^TI High Content Screening (HSC) Reader (Cellomics) using Target Activation BioApplication (TABA). TABA analyzes images acquired by a HSC Reader and provides measurements of the intracellular fluorescence intensity and localization on a cell-by-cell basis.
(§3) In each well, at least 10000 cells were counted and quantified for the presence of the inclusions. Nuclei stained with Hoechst 33285 provided the autofocus target and their count gave the exact number of the quantified cells. The screening itself consisted of two scans using Hoechst, FITC (for GFP) and TRITC (for RFP) fluorescence. Firstly, number of inclusions in transfected cells was calculated when fluorescent spots at size of at least 5 pixels (magnification 20× for cytoplasmic and 40× for nuclear aggregates) with average GFP intensity more than 1500 in the RFP background were counted. Secondly, nuclei were defined as the objects of interest and the cells with average intensity more than 50 within 3 pixels from the nucleus were selected for the analysis. The percentage of the cells with aggregates was then calculated. When the constructs without mRFP were used for transfection, the procedure was same, except the RFP intensity was not measured. Scanning was performed with triplicate or quadruplicate in each experimental condition. Data was generated from the quantification of more than 250,000 cells in each experimental set-up.

[3] = system: polyQ inclusions in 150Q-nls Neuro2a cells (tNhtt-EGFP-150Q-nls); test: ArrayScan quantification of polyQ inclusion formation in inducible 150Q-nls Neuro2a cells; type: cell-based, mouse; details: for decrease of the polyQ inclusion formation: 150Qnls Neuro2a cells, mRFP-tagged constructs, after 48 hours of differentiation and induction
Description: as §1, with “Rat pheochromocytoma (PC12) cells were grown in the same conditions as Neuro2a cells, except for the serum composition of 5% of fetal bovine and 10% of horse serum (Sigma). All transient transfections were performed with Lipofectamine 2000 (Invitrogen) according to the manufacturer's instruction.” left out
as §2
as §3, with “Secondly, nuclei were defined as the objects of interest and the cells with average intensity more than 50 within 3 pixels from the nucleus were selected for the analysis.” left out, “Scanning was performed with triplicate or quadruplicate in each experimental condition.” left out

[4] = system: 150Q Neuro2a cells; test: Cell death assay (propidium iodide uptake) in 150Q Neuro2a cells; type: cell-based, mouse; details: after 60 hours of induction
Description: (§4) Mouse neuroblastoma (Neuro2a) cells were maintained in Dulbecco's modified Eagle's medium (Sigma) supplemented with 10% heat-inactivated fetal bovine serum (Sigma), 100 U/ml penicillin and 100 μg/ml streptomycin (Invitrogen) at 37° C. in an atmosphere containing 5% CO2 and 95% air. Establishment of stable Neuro2a cell lines with the ecdysone-inducible mammalian expression system (Invitrogen), that express tNhtt-EGFP-16Q (16Q Neuro2a cells), tNhtt-EGFP-150Q (150Q Neuro2a cells) and tNhtt-EGFP-150Q-nls (150Q-nls Neuro2a cells) has been described earlier (T. Nagai et al., supra, H. Doi et al., supra, E. A. Zemskov et al., J Neurochem. 87, 2 (2003)). Neuro2a cells were differentiated with 5mM dbcAMP (N^6, 2′-O-dibutyryladenosine-3′,5′-cyclic monophosphate sodium salt) (Nacalai Tesque) and induced to express tNhtt-polyQ with 2 μM ponasterone A (ponA; Invitrogen) for indicated times. Neuro2a/FRT/TR cell line was generated as described in the protocol for Flp-in/T-Rex system (Invitrogen). […]
(§5) For quantification of cell death, 5 μg/ml each of Hoechst 33342 and propidium iodide (PI) were added to differentiated and induced Neuro2a cells transiently transfected with either of the tested constructs (FIG. 6A). After 10 minutes at 37° C., the number of cells with PI uptake over the total number of cells was calculated by ArrayScan.

[5] = system: 150Q-nls Neuro2a cells; test: Cell death assay (propidium iodide uptake) in 150Q-nls Neuro2a cells; type: cell-based, mouse; details: after 48 hours of induction
Description: as §4, §5

[6] = target: T1, tNhtt-150Q (Homo sapiens, UniProt P42858); test: Western blot of polyQ aggregation (gel top) in 150Q Neuro2a cells; type: cell-based; details: expression of mRFP-tagged constructs
T1 construct: N-terminal fragment of human huntington exon 1 (tNhtt); expressed in transfected cells
T1 sequence (P42858 with tags, fused parts or gaps): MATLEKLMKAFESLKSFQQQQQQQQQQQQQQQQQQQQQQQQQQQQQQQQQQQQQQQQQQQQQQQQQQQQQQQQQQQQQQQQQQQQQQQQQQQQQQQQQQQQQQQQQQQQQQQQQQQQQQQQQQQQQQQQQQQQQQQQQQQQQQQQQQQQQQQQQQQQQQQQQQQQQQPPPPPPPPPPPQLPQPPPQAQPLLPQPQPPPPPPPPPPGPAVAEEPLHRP
Description: as §4
(§6) Cells were washed twice with ice-cold PBS, scraped, and resuspended in lysis buffer (0.5% Triton X-100 in PBS, 0.5 mM phenylmethylsulfonyl fluoride, Complete protease inhibitor mixture (Roche Applied Sciences)). […] Immunoreactive proteins were detected with enhanced chemiluminescence reagents (Amersham Biosciences). […]

[7] = system: tNhtt-16Q; test: Western blot of tNhtt-16Q levels in inducible Neuro2a cells; type: cell-based, human; details: inducible 16Q Neuro2a cells, transfection
Description: as §4, §6

[8] = system: polyQ inclusions in 150Q Neuro2a cells; test: Confocal imaging of tested constructs in 150Q Neuro2a cells; type: cell-based, mouse
Description: as §1, with “Rat pheochromocytoma (PC12) cells were grown in the same conditions as Neuro2a cells, except for the serum composition of 5% of fetal bovine and 10% of horse serum (Sigma). All transient transfections were performed with Lipofectamine 2000 (Invitrogen) according to the manufacturer's instruction.” left out

[9] = target: T2, soluble tNhtt-60Q protein (Homo sapiens, UniProt P42858, INS38QQQQQQQQQQQQQQQQQQQQQQQQQQQQQQQQQQQQQQQ); test: Chase experiment in 60Q Neuro2a cells (Western blot); type: cell-based; details: after 24 hours chase
T2 construct: N-terminal fragment of human huntington exon 1 (tNhtt) encoding 60 CAG repeats; expressed in transfected cells; host or cells: 60Q Neuro2a cells (mouse neuroblastoma), ponasterone A induced
T2 sequence (P42858 with tags, fused parts or gaps with the stated changes): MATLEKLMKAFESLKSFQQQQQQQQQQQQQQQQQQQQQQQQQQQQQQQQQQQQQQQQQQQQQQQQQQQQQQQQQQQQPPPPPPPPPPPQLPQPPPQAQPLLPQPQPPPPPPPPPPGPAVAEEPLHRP
Description: (§7) To determine whether tNhtt-polyQ degrades faster in the presence of RHQ, chase experiments were performed. Neuro2a were first induced to express tNhtt-polyQ for 20 hrs in case of 60Q and 12 hrs in case of 150Q cells and then transfected with the tested constructs. Four hours later, ponaA was removed; cells were washed with PBS and incubated in the medium containing dbcAMP (for differentiation) for 24 hrs. Cells were lysed and the levels of tNhtt-polyQ were analyzed by Western blotting.
(§8) Cells were washed twice with ice-cold PBS, scraped, and resuspended in lysis buffer (0.5% Triton X-100 in PBS, 0.5 mM phenylmethylsulfonyl fluoride, Complete protease inhibitor mixture (Roche Applied Sciences)). After incubating on ice for 30 minutes lysates were briefly sonicated. Equal amounts of protein were boiled for 5 minutes in 2× SDS-sample buffer, separated by 5-12% gradient SDS-PAGE and electrophoretically transferred to a polyvinylidene difluoride (PVDF) membrane (Millipore). The membranes were blocked in 5% skim milk in 0.05% Tween 20/Tris-buffered saline (TBST) and incubated with primary antibody (dilutions in accordance to manufacturer's recommendations) overnight at […]. […] Immunoreactive proteins were detected with enhanced chemiluminescence reagents (Amersham Biosciences). […]

[10] = target: T3, tNhtt-62Q-kikGR protein (Homo sapiens, UniProt P42858, INS38QQQQQQQQQQQQQQQQQQQQQQQQQQQQQQQQQQQQQQQQQ); test: Chase experiment in tNhtt-62Q-kikGR Neuro2a cells after photo-cleavage; type: cell-based; details: twelve hours after irradiation
T3 construct: inserting the htt exon 1 with 62Q (HD62); monomeric KikGR (mKikGR; KikGR BAD95669 with A17S, G32R, I37T, N39T, C116T, V126T, N161E, Q167E, H219Y, L222T, P223Y) (C); expressed in transfected cells; host or cells: Neuro2a/FRT/TR cells (Flp-in/T-Rex), doxycycline induced
T3 sequence (P42858 with tags, fused parts or gaps with the stated changes): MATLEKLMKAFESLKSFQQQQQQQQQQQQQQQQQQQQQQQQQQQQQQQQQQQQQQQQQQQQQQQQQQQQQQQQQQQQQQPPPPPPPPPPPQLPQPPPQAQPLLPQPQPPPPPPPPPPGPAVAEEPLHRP
Description: as §4, with “(2003)).” for “(2003)). Neuro2a cells were differentiated with 5mM dbcAMP (N^6, 2′-O-dibutyryladenosine-3′,5′-cyclic monophosphate sodium salt) (Nacalai Tesque) and induced to express tNhtt-polyQ with 2 μM ponasterone A (ponA; Invitrogen) for indicated times. Neuro2a/FRT/TR cell line was generated as described in the protocol for Flp-in/T-Rex system (Invitrogen).”
Neuro2a tNhtt-62Q-kikGR cells were induced for 24 hours, and then the 62Q-kikGR was cleaved by 5 minutes irradiation of the cells. Chase phase lasted for 12 hours before the cells were collected and analyzed.
as §6

[11] = target: T4, tNhtt-150Q polyQ protein (Homo sapiens, UniProt P42858); test: Chase experiment in 150Q Neuro2a cells (Western blot); type: cell-based
T4 construct: N-terminal fragment of human huntington exon 1 (tNhtt); expressed in transfected cells
T4 sequence (P42858 with tags, fused parts or gaps): as the sequence (P42858 with tags, fused parts or gaps) above
Description: as §7, §8

Row | Compound | influence of inhibitor on the effect of HSC70bm on 60Q aggregation [1] | decrease of inclusion formation [2] | decrease of the polyQ inclusion formation [3] | polyQ aggregation (gel top) [6] | levels of tNhtt-16Q [7] | localization relative to polyQ inclusions [8] | further results
1 | Cn1cnc(N)c2ncnc1-2 [3MA, 3-methyladenine] | did not | – | – | – | – | – | –
2 | CC(C)CC(=O)N[C@H](C(=O)N[C@H](C(=O)N[C@@H](CC(C)C)[C@@H](O)CC(=O)N[C@@H](C)C(=O)N[C@@H](CC(C)C)[C@@H](O)CC(=O)O)C(C)C)C(C)C [pepstatin A] (Isovaleryl-VV[Sta]A[Sta]-OH) | alleviated the effect of HSC70bm | – | – | – | – | – | –
3 | (QBP1)2 (MSNWKWWPGIFDSNWKWWPGIFD) [reference compound] | – | – | – | – | – | – | decrease of aggregation compared to control counterparts (S and HS) ([2]; constructs without mRFP, induced and differentiated for 24 hours): 32.6%; reduction of aggregation compared to control counterparts (S and HS) ([3]; 150Q-nls Neuro2a cells, constructs without mRFP, 48 hours after induction): 24.7%; decrease of the percentage of PI-positive cells [4]: 12.3%; decrease of the percentage of PI-positive cells [5]: 17.7%
4 | mRFP-(QBP1)2 (MSNWKWWPGIFDSNWKWWPGIFD; also: fused to mRFP) [RQ, monomeric red fluorescent protein fused to (QBP1)2, reference compound] | – | 38% | 21.5% | markedly decreased | not affected | co-localized with the polyQ inclusions | –
5 | mRFP-HSC70bm-(QBP1)2 (MARVKKDQAEPLHRKFERQPPGSNWKWWPGIFDSNWKWWPGIFD; also: fused to mRFP) [RHQ] | – | 56.5% | 48.5% | much stronger effect; also recorded: markedly decreased | not affected | co-localized with the polyQ inclusions | effect on polyQ aggregation after silencing of HSC70 and/or Lamp2a with shRNA ([2]; any knock-down combination): inhibited; enhancement of degradation of soluble tNhtt-60Q protein as compared to R [9]: 43%; enhancement of degradation of soluble tNhtt-60Q protein as compared with RQ [9]: 37.4%; decrease of full length (constitutively expressed) tNhtt-62Q-kikGR as compared to RQ [10]: 24%; decrease of levels of the cleaved form of tNhtt-62Q-kikGR protein as compared to RQ [10]: 45.6%; clearance of aggregated and soluble polyQ ([11]; autophagy activation by serum withdrawal): almost complete clearance; degradation of the polyQ protein ([11]; chase 24 hours): enhanced degradation

Reference: patent publication US20100016221A1, “METHOD OF DEGRADING PROTEIN BY CHAPERONE-MEDIATED AUTOPHAGY” (RIKEN, priority 2008, published 2010)
